Laboratory results as given in patent US9480664B2, “Compositions and methods for treating cancer” (Augusta University Research Institute, Inc., priority 2014, dated 2016).

How the values were obtained:
[1] = test system: 20-HETE production in MC38 cells; assay: 20-HETE production in cultured MC38 cells (LC/MS/MS); format: cell-based, mouse; conditions: HET0016 1 μM vs vehicle; FIG. 1C
Experimental: (§1) MC38 cells were maintained in complete medium consisting of DMEM supplemented with 10% heat-inactivated FBS, […] streptomycin, and 100 U/ml penicillin in a humidified incubator at 37° C. with 5% CO2. Sub-confluent cultured cells were harvested by washing T-75 flasks two times with Ca^2+- and Mg^2+-free Earl's balanced salts, followed by 2 min incubation with 0.25% trypsin-EDTA (Life Technologies, Grand Island, N.Y.) at 37° C. A human cerebral microvascular endothelial cell line (HCMECL) was used in the studies (University of Georgia, Athens, Ga.). Primary rat brain microvascular endothelial cells (RBMEC) were prepared as described previously (Prakash, et al., Diabetes 61:97 1533-1542 (2012)). HCMECL and RBMEC were maintained in MCDB-131 complete medium (VEC Technologies, Rensselaer, N.Y.).
(§2) MC38 cells were collected using 0.25% trypsin-EDTA. After centrifugation, a cell pallet was re-suspended in 300 μl of PBS. […] The concentrations of 20-HETE in media and cell lysates were determined by Liquid Chromatography—Tandem Mass Spectrometry (LC/MS/MS) using 15(S)-HETE-d8 as an internal standard as described previously (Chen, et al., Prostaglandins Other Lipid Mediat 104-105:42-48 (2013)). […] The concentrations of PGE2 in media and cell lysates were determined by an ELISA kit (Cayman Chemical, Ann Arbor, Mich.) according to the manufacturer's instructions.

[2] = test system: MC38 cells; assay: MC38 cell growth by counting cell numbers; format: cell-based, mouse; conditions: single agent 100 nM to 10 μM, 48 h, serum-free medium + EGF 200 ng/ml; FIG. 3A/3B
Experimental: For cell growth experiments, cells were seeded onto 6-well plates at a density of 2.5×10^5 cells/well. […] After 48 h of treatment, cells were collected using 0.25% trypsin-EDTA and counted using a hemocytometer.

[3] = test system: plasma eicosanoids; assay: Plasma 20-HETE and other eicosanoids in MC38 tumor mice (LC/MS/MS); format: in vivo, mouse; conditions: 3 weeks; for Plasma 20-HETE levels / Plasma levels of EETs/DHETs, 5-HETE, 8-HETE, 11-HETE, 15-HETE: rofecoxib 50 mg/l, HET0016 5 mg/kg/day i.p. given with rofecoxib, FIG. 6A
Experimental: After 3 weeks of different treatments, MC38 tumor mice were anesthetized with 2% isoflurane delivered by an anesthesia apparatus. About 0.6 ml of venous blood was collected from mice using a 1-ml syringe containing sodium citrate. The samples were centrifuged at 2,400×g for 15 min to obtain platelet-free plasma. To stabilize eicosanoids in plasma samples, 10 μl combinations of antioxidants (EDTA (0.2 mg/l), butylated hydroxytoluene (0.2 mg/l), and triphenyphosphine (2 mg/l)) were added to each plasma sample. The plasma samples were stored at −80° C. until LC/MS/MS analysis. Plasma samples were spiked with 10 ng of 15(S)-HETE-d8, applied to preconditioned SEP Pak C18 cartridges (100 mg adsorbent, Waters), and washed with water followed by hexane. Eicosanoids were eluted with 500 μl of ethyl acetate-hexane (3:1). The eluate was dried under nitrogen and reconstituted in methanol: 25 mM aqueous ammonium acetate (7:3). The extracted and reconstituted sample was subjected to HPLC (Shimadzu Prominence XR system) on a Max-RP C18 column (2×150 mm, 3 μu, Phenomenex) isocratically eluted with methanol:13 mM aqueous ammonium acetate (8:2) at a flow rate of 0.4 ml/min. The eluent was monitored for 20-HETE, EETs (5,6-EET, 8,9-EET, 11,12-EET, 14,15-EET), DHETs (5,6-DHET, 8,9-DHET, 11,12-DHET, 14,15-DHET), 5-HETE, 8-HETE, 11-HETE, 15-HETE, PGJ2, PGE2, TXB2, and 15keto-PGE2 by mass spectrometer (QTRAP5500, ABSCIEX) in the negative ion mode using Multiple Reaction Monitoring under optimized conditions. 15(S)-HETE-d8 was used as the internal standard for recovery and quantitation. The concentrations of eicosanoids were determined by comparing the ratio of ion intensity of each eicosanoid versus that of 15(S)-HETE-d8, as described previously (Chen, et al., Prostaglandins Other Lipid Mediat 104-105:42-48 (2013); Maddipati, et al., Prostaglandins Other Lipid Mediat 94:59-72 (2011)).

[4] = test system: subcutaneous MC38 tumors; assay: Tumor growth in MC38 colon tumor-bearing C57BL/6J mice; format: in vivo, mouse; conditions: HET0016 5 or 10 mg/kg/day i.p.; rofecoxib 50 mg/l in drinking water; combination compared with rofecoxib alone; FIG. 5
Experimental: 8-week-old male C57BL/6J mice were subcutaneously injected with MC38 cells (1.4×10^6 cells/mouse) to induce colon tumor. […] All treatments were done for 21 days. Rofecoxib (50 mg/l) was suspended in drinking water containing 1% (vol/vol) PEG 400 (Sigma-Aldrich) and 0.5% (wt/vol) 2-hydroxypropyl-β-cyclodextrin (Sigma-Aldrich). The formula and dose of rofecoxib were prepared according to a previous publication (Liu, et al., Proc Natl Acad Sci USA 107: 17017-17022 (2010)). Tumor growth rates were monitored by measuring tumor volume with a sliding caliper on day 9 or day 18 after cell-implantation. The volumes of tumors were calculated from the major dimension (L) and minor dimension (S), using the equation: tumor volume=L×(S)2/2 as described previously (Konson, et al., Cancer Gene Ther 11: 830-840 (2004)).

[5] = test system: MC38 cells; assay: MC38 cell proliferation by BrdU ELISA assay; format: cell-based, mouse; conditions: 48 h
Experimental: MC38 cells were seeded at a density of 5×10^3 cells/well in 10% FBS/DMEM in 96-well plates. […] BrdU ELISA assay was done using an ELISA kit (CycLex Co., Nagano, Japan). Briefly, 3 h before assay, BrdU (10 μM final concentration) was added to the 96-well plates containing MC38 cells given different incubation conditions. After 3 h of incubation, the culture medium was removed, and fixed with Fixing/Denaturing solution (200 μl/well) at room temperature for 30 min. After removing Fixing/Denaturing solution, plates were incubated with monoclonal anti-BrdU antibody (50 μl/well) at room temperature for 1 h. Plates were washed five times with Wash buffer (200 μl/well), then incubated with the secondary antibody (50 μl/well) at room temperature for 1 h. After removing the secondary antibody and doing a second wash procedure, plates were incubated with Substrate Reagent (50 μl/well) at room temperature for 15 min in the dark. The reaction was then stopped by adding Stop Solution (50 μl/well). The absorbance in each well was measured using a Tecan GENios Plus microplate reader at dual wavelengths of 450/540 nm.

[6] = test system: B6 mice subjected to ischemic stroke; assay: Ischemic stroke in B6 mice supplemented with 20-OH PGE2; format: in vivo, mouse; conditions: 20-OH PGE2 250 ng/h via osmotic pump, 7 days, vs vehicle
Experimental: B6 mice were divided into two groups: one supplemented with 20-OH PGE2 (250 ng/h in an osmotic pump) and one given vehicle. After one week of treatment, the mice were subjected to ischemic stroke.
Although 20-OH PGE2 elicits beneficial protective effects in brain endothelial cells under OGD/Rep, the precise role of 20-OH PGE2 in ischemic stroke is still to be defined. To determine the effects of 20-OH PGE2 supplementation on stroke damage, B6 mice were treated with 20-OH PGE2 (Cayman) (administered via an osmotic pump (Alzet) at a dose of 250 ng/h) or vehicle for 7 days. The effects of 20-OH PGE2 on infarct size and neurological deficit after ischemic stroke were examined.

[7] = Water intake and body weight of treated mice; format: in vivo, mouse; conditions: rofecoxib 50 mg/l in drinking water, n=5
Experimental: In a complementary experiment, the water intake and body weight of mice treated with water, vehicle, and rofecoxib (50 mg/l) was determined. Neither vehicle (3.02±0.17 vs. 3.16±0.16 ml/24 h/mouse, n=5) nor rofecoxib (3.07±0.1 vs. 3.16±0.16 ml/24 h/mouse, n=5) treatment affected water intake. Likewise, there was no significant change of body weight among water (24±1.63 g/mouse, n=5), vehicle (23.8±1.1 g/mouse, n=5), and rofecoxib (24.5±1.0 g/mouse, n=5) group.

[8] = test system: MC38 tumor mice subjected to thromboembolic stroke; assay: Thromboembolic ischemic stroke in MC38 tumor mice: neurovascular injury and functional outcome; format: in vivo, mouse
Description: Age-matched non-tumor mice were usedas control. At the end of the treatment period, mice were subjected to thromboembolic stroke. Under isoflurane anesthesia, the right common carotid artery, the right external carotid artery (ECA), and the right internal carotid artery were exposed through a middle incision on the ventral side of the neck. A PE 10 catheter containing a fibrin-rich clot was gently inserted from the ECA stump into the distal internal carotid artery just proximal to the origin of the middle cerebral artery (MCA). Each clot (˜1 cm), prepared from a donor mouse, was injected with 75 μl of sterile PBS; after 2 min, the catheter was withdrawn as described previously (Hoda, et al., Exp Transl Stroke Med 3:16 (2011)). Occlusion was confirmed by a ≧70% drop in cerebral blood flow as compared to the pre-ischemic value. The success rate of thromboembolic MCA occlusion was 95% based on changes in cerebral blood flow. At day 3 after surgery, mice were first evaluated for functional outcome, then sacrificed for evaluation of neurovascular injury including infarct size and bleeding. Extracted brains were analyzed for infarct size in coronal slices of 2 mm thickness, labeled A-G, front to back. Hemorrhagic transformation (HT), secondary bleeding into the brain after ischemic stroke was evaluated by the presence of visible macroscopic bleeding and measured in a binary fashion: yes or no. Number of animals that had HT was reported per group. 2, 3, 5-Triphenyltetrazolium chloride (TTC), a mitochondria stain, was used to outline the infarct area. The captured images were numerically labeled and analyzed using specialized KS300 software. Infarct size was expressed as a percentage of the contralateral hemisphere. Neurologic deficits in mice given different treatments were assessed at 24 h and 72 h after stroke, using a 5-point scale for scoring: 0, no deficit; 1, forelimb flexion deficit on contralateral side; 2, decreased resistance to lateral push and torso turning to the ipsilateral side when held by tail; 3, significant circling to the affected side and reduced capability to bear weight on the affected side; 4, rarely moved spontaneously and preferred to stay at rest.

[9] = test system: Cyp4a; assay: Cyp4a expression in liver and kidney of MC38 tumor mice (Western blot); format: in vivo, mouse; conditions: 3-week rofecoxib treatment, FIG. 6C
[10] = test system: PGE2 production in MC38 cells; assay: PGE2 production in MC38 cells (PGE2 ELISA); format: cell-based, mouse; conditions: dose response; FIG. 2C
Experimental: as §1, §2

Row | SMILES | 20-HETE production and secretion in MC38 cell media [1] | MC38 cell growth (cell number/well) [2] | Plasma 20-HETE levels [3] | Plasma levels of EETs/DHETs, 5-HETE, 8-HETE, 11-HETE, 15-HETE [3] | Plasma PGJ2, PGE2, TXB2 and 15 keto-PGE2 levels ([3]; HET0016 5 mg/kg/day i.p., FIG. 6B) | Tumor size on day 9 post implantation [4] | Tumor size on day 18 post-implantation [4] | BrdU incorporation into MC38 cells ([5]; 100 nM to 10 μM, serum-free medium + EGF 200 ng/ml, FIG. 4A) | Infarct size after ischemic stroke ([6]; FIG. 10A) | Neurological deficits after ischemic stroke ([6]; FIG. 10B) | Body weight [7] | Water intake ([7]; water group 3.16±0.16) | Mortality after ischemic stroke ([8]; 3 weeks treatment, rofecoxib 50 mg/l, HET0016 5 mg/kg/day i.p.) | Animals that developed HT ([8]; C57BL/6J, mouse, in vivo, 3 weeks) | Functional outcome (neurological deficit score) ([8]; mouse, in vivo) | Infarct size ([8]; rofecoxib compared to control mice, combination compared to rofecoxib, FIG. 8B) | BrdU incorporation into MC38 cells at 1 μM ([5]; 1 μM (combination 1 μM each, compared with rofecoxib alone), FIG. 4B/4C) | cyp4a expression in the liver and kidney [9] | PGE2 production in MC38 cells [10]
1 | CCCCc1ccc(N=CNO)c(C)c1 [HET0016, N-Hydroxy-N′-(4-butyl-2-methylphenyl)formamidine] | effectively blocked 20-HETE production and secretion | inhibited cell growth | selectively reduced plasma 20-HETE levels | without affecting | did not affect | did not affect tumor size | dose-dependently reduced tumor size | inhibited the incorporation of BrdU in a concentration dependent manner |  |  |  |  |  |  |  |  |  |  | 
2 | O=C(O)CCC/C=C\C[C@H]1C(=O)C[C@@H](O)[C@@H]1/C=C/[C@@H](O)CCCCCO [20-OH PGE2] |  |  |  |  |  |  |  |  | reduced | reduced |  |  |  |  |  |  |  |  | 
3 | CS(=O)(=O)c1ccc(C2=C(c3ccccc3)C(=O)OC2)cc1 [rofecoxib] |  | inhibited cell growth | selectively increased 20-HETE plasma levels | no significant changes |  | significantly reduced tumor size | significantly reduced tumor size |  |  |  | 24.5±1.0 g/mouse | 3.07±0.1 ml/24 h/mouse | ~30% | 4 out of the 5 | neurological deficit scores were higher | reduced the size of infarcts | significantly inhibited BrdU incorporation | had no effect on cyp4a expression | dose-dependently inhibited PGE2 production
